Results as given in PubChem BioAssay (NCI).
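Dose response: 5 concentrations. Exposure: 48 h. Format: 96-well plates. Endpoint: linear interpolation; highest concentration if not reached. Definition used: TGI = concentration required for complete inhibition of growth.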

Columns and labels:
Assay in all cases: NCI anticancer screen, dose series, 48 h
HCT-15 colon = test system: HCT-15 colon
OVCAR-3 ovarian = test system: OVCAR-3 ovarian
ACHN renal = test system: ACHN renal
MDA-N = test system: MDA-N
A549 NSCLC = test system: A549 NSCLC
SF-268 CNS = test system: SF-268 CNS
HOP-62 NSCLC = test system: HOP-62 NSCLC
COLO 205 colon = test system: COLO 205 colon
SNB-19 CNS = test system: SNB-19 CNS
TK-10 renal = test system: TK-10 renal
MALME-3M melanoma = test system: MALME-3M melanoma
UO-31 renal = test system: UO-31 renal
K-562 leukemia = test system: K-562 leukemia
T-47D breast = test system: T-47D breast
OVCAR-5 ovarian = test system: OVCAR-5 ovarian
NCI-H460 lung = test system: NCI-H460 lung
NCI/ADR-RES ovarian = test system: NCI/ADR-RES ovarian
786-0 renal = test system: 786-0 renal
UACC-257 melanoma = test system: UACC-257 melanoma
NCI-H522 lung = test system: NCI-H522 lung
SK-OV-3 ovarian = test system: SK-OV-3 ovarian
HL-60(TB) leukemia = test system: HL-60(TB) leukemia
IGROV1 ovarian = test system: IGROV1 ovarian
HT29 colon = test system: HT29 colon
HCC-2998 colon = test system: HCC-2998 colon
NCI-H226 lung = test system: NCI-H226 lung
HCT-116 colon = test system: HCT-116 colon
OVCAR-8 ovarian = test system: OVCAR-8 ovarian
OVCAR-4 ovarian = test system: OVCAR-4 ovarian
SK-MEL-28 melanoma = test system: SK-MEL-28 melanoma
SK-MEL-5 melanoma = test system: SK-MEL-5 melanoma
A498 renal = test system: A498 renal
CAKI-1 renal = test system: CAKI-1 renal
DU-145 prostate = test system: DU-145 prostate
LOX IMVI melanoma = test system: LOX IMVI melanoma
RPMI-8226 leukemia = test system: RPMI-8226 leukemia
U251 CNS = test system: U251 CNS
HS 578T breast = test system: HS 578T breast
UACC-62 melanoma = test system: UACC-62 melanoma
RXF 393 renal = test system: RXF 393 renal
PC-3 prostate = test system: PC-3 prostate
MDA-MB-435 = test system: MDA-MB-435
SR leukemia = test system: SR leukemia
MCF7 breast = test system: MCF7 breast
HOP-92 NSCLC = test system: HOP-92 NSCLC
SF-295 CNS = test system: SF-295 CNS
M14 melanoma = test system: M14 melanoma
BT-549 breast = test system: BT-549 breast
SF-539 CNS = test system: SF-539 CNS
MDA-MB-231 breast = test system: MDA-MB-231 breast
NCI-H23 lung = test system: NCI-H23 lung
SN12C renal = test system: SN12C renal
KM12 colon = test system: KM12 colon
EKVX NSCLC = test system: EKVX NSCLC
SW-620 colon = test system: SW-620 colon
MOLT-4 leukemia = test system: MOLT-4 leukemia
SK-MEL-2 melanoma = test system: SK-MEL-2 melanoma

Measured: TGI

O=C(O)c1cc(-c2ccncc2)nc2ccccc12
> 100 µM: all assays above
